Tests used:
Assay in all cases: KinomeScan kinase profiling
Type in all cases: binding
CDK7 = molecular target: T1, CDK7 (Homo sapiens, UniProt P50613)
T1 construct: host or cells: T7 phage in E. coli (BL21-derived)
How it was run: (§1)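 Kinases were expressed as T7 phage fusions in a BL21-derived E. coli host and the cleared lysates were used. Ligand beads were blocked with biotin and buffer (1% BSA, 0.05% Tween 20, 1 mM DTT). Compounds came from 40× DMSO stocks, and phage in the eluates was titred by qPCR.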

FGFR4 = molecular target: T2, FGFR4 (Homo sapiens, UniProt P22455)
T2 construct: host or cells: E. coli host derived from BL21, infected with T7 phage
T2 sequence (P22455 22-802): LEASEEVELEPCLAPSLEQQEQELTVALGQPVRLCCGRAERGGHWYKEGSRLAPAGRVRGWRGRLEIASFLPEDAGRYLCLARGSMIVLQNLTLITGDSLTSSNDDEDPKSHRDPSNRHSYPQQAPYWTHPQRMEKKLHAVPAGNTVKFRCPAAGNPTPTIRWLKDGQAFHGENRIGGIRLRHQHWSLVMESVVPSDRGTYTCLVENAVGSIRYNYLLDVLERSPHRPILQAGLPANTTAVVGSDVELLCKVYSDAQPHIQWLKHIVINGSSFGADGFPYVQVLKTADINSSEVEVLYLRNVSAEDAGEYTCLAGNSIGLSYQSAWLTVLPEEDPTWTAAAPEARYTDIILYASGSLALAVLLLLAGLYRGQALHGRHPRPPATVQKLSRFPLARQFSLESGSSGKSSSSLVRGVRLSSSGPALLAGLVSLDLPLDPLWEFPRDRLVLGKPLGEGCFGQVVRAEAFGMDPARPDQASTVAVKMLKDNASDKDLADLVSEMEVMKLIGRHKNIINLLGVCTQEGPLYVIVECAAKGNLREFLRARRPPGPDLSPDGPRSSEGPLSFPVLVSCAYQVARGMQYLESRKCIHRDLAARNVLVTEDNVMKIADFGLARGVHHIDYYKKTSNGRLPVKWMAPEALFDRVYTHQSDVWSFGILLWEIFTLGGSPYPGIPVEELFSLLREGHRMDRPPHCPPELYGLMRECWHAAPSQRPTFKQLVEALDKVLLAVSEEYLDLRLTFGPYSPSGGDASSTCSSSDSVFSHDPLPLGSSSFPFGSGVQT
How it was run: as §1

CSNK1D = molecular target: T3, CSNK1D (Homo sapiens, UniProt P48730)
T3 construct: host or cells: T7 phage in E. coli (BL21-derived)
T3 sequence (P48730 whole entry): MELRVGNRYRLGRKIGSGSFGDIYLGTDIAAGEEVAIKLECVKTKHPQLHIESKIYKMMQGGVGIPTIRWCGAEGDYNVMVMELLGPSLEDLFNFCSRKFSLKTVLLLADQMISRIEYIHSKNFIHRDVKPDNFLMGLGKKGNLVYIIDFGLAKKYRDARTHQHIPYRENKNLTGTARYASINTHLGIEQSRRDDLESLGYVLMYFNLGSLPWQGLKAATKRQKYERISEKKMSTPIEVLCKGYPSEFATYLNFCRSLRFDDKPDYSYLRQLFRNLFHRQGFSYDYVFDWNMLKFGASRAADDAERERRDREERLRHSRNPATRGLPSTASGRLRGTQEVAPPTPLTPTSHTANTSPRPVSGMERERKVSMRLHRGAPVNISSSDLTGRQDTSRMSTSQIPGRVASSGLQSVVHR
How it was run: as §1

TLK1 = molecular target: T4, TLK1 (Homo sapiens, UniProt Q9UKI8)
T4 construct: purchased Ambit Biosciences Corp (KinomeScan); host or cells: E. coli host derived from the BL21 strain (T7 phage lysate)
T4 sequence (Q9UKI8 whole entry): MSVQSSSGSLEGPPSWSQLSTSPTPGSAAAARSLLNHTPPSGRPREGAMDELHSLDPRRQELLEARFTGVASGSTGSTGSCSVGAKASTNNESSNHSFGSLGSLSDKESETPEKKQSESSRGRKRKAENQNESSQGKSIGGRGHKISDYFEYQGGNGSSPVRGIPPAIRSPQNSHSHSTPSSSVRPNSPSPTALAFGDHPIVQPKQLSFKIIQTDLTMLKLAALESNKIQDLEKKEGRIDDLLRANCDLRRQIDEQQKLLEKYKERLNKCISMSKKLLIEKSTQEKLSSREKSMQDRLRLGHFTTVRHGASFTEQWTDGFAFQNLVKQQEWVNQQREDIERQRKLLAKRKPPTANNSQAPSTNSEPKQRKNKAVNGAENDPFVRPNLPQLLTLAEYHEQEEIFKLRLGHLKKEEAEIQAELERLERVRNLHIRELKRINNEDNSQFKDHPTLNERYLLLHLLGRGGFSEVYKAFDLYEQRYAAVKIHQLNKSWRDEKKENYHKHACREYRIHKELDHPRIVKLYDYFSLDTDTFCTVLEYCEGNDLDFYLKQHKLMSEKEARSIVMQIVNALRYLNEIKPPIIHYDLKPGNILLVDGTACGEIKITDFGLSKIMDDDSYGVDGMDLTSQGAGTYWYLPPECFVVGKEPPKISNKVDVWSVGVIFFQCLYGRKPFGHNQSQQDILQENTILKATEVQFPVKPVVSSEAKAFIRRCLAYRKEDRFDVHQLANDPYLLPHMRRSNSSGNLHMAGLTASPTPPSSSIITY
How it was run: as §1

CAMK1G = molecular target: T5, CAMK1G (Homo sapiens, UniProt Q96NX5)
T5 construct: purchased Ambit Biosciences Corp (KinomeScan); host or cells: E. coli host derived from the BL21 strain, T7 phage
T5 sequence (Q96NX5 whole entry): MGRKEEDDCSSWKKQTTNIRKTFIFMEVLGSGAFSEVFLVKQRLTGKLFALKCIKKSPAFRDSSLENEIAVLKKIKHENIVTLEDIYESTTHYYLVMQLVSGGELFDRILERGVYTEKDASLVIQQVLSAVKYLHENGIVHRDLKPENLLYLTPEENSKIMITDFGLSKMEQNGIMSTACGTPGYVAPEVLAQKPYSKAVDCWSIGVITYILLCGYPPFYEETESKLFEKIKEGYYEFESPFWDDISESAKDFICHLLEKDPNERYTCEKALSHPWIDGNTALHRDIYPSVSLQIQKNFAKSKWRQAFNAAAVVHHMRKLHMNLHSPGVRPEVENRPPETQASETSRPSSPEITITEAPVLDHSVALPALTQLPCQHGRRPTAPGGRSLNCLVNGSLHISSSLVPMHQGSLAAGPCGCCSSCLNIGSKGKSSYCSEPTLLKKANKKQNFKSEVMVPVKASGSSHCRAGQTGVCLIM
How it was run: as §1

PIK3CD = molecular target: T6, PIK3CD (Homo sapiens, UniProt O00329)
T6 construct: purchased Ambit Biosciences Corp (KinomeScan); host or cells: E. coli host derived from BL21, infected with T7 phage
How it was run: as §1

GAK = molecular target: T7, GAK (Homo sapiens, UniProt O14976)
T7 construct: host or cells: E. coli host derived from BL21, infected with T7 phage
How it was run: as §1

GSK3B = molecular target: T8, GSK3B (Homo sapiens, UniProt P49841)
T8 construct: host or cells: E. coli host derived from BL21, infected with T7 phage
How it was run: as §1

AAK1 = molecular target: T9, AAK1 (Homo sapiens, UniProt Q2M2I8)
T9 construct: host or cells: E. coli host derived from BL21 (T7 phage lysate)
How it was run: as §1

KIT (V559D) = molecular target: T10, KIT (V559D) (Homo sapiens, UniProt P10721, V559D)
T10 construct: host or cells: T7 phage in E. coli host derived from BL21
T10 sequence (P10721 26-976 V559D): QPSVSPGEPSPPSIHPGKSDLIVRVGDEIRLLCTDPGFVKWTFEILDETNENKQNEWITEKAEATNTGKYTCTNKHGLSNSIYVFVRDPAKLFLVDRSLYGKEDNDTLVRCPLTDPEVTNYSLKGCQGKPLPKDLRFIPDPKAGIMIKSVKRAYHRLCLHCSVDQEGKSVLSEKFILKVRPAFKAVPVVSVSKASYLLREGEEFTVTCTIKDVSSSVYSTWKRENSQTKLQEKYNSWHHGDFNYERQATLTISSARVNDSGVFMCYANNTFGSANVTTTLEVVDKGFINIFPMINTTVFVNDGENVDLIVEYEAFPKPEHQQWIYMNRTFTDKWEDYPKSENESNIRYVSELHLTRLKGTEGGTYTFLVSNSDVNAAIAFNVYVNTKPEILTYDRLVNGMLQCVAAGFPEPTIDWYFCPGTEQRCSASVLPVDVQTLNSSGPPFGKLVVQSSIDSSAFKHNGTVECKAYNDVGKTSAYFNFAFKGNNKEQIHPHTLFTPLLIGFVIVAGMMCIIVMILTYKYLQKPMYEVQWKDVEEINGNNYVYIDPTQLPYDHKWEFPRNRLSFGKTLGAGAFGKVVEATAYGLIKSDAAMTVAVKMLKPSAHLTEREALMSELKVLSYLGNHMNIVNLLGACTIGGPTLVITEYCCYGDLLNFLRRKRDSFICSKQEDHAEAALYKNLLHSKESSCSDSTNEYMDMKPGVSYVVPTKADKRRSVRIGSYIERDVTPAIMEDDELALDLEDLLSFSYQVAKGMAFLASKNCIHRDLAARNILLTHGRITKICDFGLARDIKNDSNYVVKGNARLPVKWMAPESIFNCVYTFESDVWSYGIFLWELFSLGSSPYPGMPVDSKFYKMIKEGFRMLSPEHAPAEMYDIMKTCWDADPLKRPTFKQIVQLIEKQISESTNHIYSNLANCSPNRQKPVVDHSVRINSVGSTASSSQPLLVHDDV
How it was run: as §1

NEK5 = molecular target: T11, NEK5 (Homo sapiens, UniProt Q6P3R8)
T11 construct: host or cells: T7 phage in E. coli host derived from BL21
How it was run: as §1

PRKCQ = molecular target: T12, PRKCQ (Homo sapiens, UniProt Q04759)
T12 construct: purchased Ambit Biosciences Corp (KinomeScan); host or cells: E. coli host derived from BL21, infected with T7 phage
How it was run: as §1

CLK4 = molecular target: T13, CLK4 (Homo sapiens, UniProt Q9HAZ1)
T13 construct: host or cells: T7 phage in E. coli (BL21-derived)
How it was run: as §1

SIK = molecular target: T14, SIK (Homo sapiens, UniProt P57059)
T14 construct: host or cells: E. coli host derived from the BL21 strain, T7 phage lysate
How it was run: as §1

[1] = molecular target: T15, RPS6KA6 (Kin.Dom.-2-C-terminal) (Homo sapiens, UniProt Q9UK32)
T15 construct: RPS6KA6 (Kin.Dom.-2-C-terminal); host or cells: E. coli host derived from the BL21 strain, T7 phage lysate
How it was run: as §1

PIK3CA = molecular target: T16, PIK3CA (Homo sapiens, UniProt P42336)
T16 construct: host or cells: E. coli host derived from the BL21 strain, infected with T7 phage
How it was run: as §1

ACVR2A = molecular target: T17, ACVR2A (Homo sapiens, UniProt P27037)
T17 construct: host or cells: E. coli host derived from BL21 (T7 phage lysate)
How it was run: as §1

TNNI3K = molecular target: T18, TNNI3K (Homo sapiens, UniProt Q59H18)
T18 construct: purchased Ambit Biosciences Corp (KinomeScan); host or cells: E. coli host derived from the BL21 strain (T7 phage lysate)
How it was run: as §1

FLT1 = molecular target: T19, FLT1 (Homo sapiens, UniProt P17948)
T19 construct: host or cells: E. coli host derived from BL21, infected with T7 phage
How it was run: as §1

WEE1 = molecular target: T20, WEE1 (Homo sapiens, UniProt P30291)
T20 construct: purchased Ambit Biosciences Corp (KinomeScan); host or cells: E. coli host derived from the BL21 strain (T7 phage lysate)
T20 sequence (P30291 whole entry): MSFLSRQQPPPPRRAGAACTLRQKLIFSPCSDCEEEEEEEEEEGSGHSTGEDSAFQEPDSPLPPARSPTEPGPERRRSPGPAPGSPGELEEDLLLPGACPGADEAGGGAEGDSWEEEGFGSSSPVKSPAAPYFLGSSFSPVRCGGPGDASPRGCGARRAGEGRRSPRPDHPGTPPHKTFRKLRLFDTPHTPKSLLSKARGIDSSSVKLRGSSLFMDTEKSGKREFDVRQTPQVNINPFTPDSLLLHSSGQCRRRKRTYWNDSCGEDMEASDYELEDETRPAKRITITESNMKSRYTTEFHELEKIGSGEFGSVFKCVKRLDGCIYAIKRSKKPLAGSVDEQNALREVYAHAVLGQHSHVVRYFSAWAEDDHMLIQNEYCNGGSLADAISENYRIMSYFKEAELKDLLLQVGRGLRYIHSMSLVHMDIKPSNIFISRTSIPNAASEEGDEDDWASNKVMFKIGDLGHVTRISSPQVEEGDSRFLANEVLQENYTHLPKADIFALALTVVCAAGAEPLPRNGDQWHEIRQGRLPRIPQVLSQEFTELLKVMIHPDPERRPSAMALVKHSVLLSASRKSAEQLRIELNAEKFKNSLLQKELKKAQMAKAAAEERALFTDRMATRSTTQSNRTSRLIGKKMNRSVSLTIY
How it was run: as §1

ERK8 = molecular target: T21, ERK8 (Homo sapiens, UniProt Q8TD08)
T21 construct: host or cells: E. coli host derived from BL21, T7 phage lysate
How it was run: as §1

RIPK4 = molecular target: T22, RIPK4 (Homo sapiens, UniProt P57078)
T22 construct: host or cells: E. coli host derived from BL21, T7 phage lysate
T22 sequence (P57078 whole entry): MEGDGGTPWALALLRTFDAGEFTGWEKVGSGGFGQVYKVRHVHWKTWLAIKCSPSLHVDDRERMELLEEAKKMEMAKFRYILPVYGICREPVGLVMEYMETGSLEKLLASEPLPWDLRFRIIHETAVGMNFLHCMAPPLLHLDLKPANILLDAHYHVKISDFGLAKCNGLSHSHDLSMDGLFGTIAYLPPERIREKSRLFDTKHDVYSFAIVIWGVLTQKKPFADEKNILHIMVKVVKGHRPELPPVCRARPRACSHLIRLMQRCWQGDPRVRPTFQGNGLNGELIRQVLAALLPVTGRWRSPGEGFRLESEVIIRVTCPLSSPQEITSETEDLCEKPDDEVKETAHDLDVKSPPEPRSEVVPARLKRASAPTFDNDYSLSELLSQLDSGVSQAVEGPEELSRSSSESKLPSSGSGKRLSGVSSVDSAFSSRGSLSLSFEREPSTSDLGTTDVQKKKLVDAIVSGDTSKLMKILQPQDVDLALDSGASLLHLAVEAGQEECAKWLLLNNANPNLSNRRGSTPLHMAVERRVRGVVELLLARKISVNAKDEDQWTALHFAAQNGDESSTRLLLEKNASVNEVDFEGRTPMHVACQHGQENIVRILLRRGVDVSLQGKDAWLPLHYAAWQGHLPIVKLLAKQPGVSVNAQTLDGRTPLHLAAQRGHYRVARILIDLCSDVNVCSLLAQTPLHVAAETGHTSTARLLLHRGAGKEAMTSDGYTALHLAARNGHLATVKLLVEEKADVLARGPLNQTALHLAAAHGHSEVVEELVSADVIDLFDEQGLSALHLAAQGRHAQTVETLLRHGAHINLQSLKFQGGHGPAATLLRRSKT
How it was run: as §1

**Q.** Which “% Ctrl @ 10000 nM” value (CDK7) does the source give for `C#Cc1cccc(Nc2ncnc3cc(OC)c(OCCCN4CCOCC4)cc23)c1` [NRC-2694, N-(3-ethylnylphenyl)-7-methoxy-6-[3-(4-morpholinyl)propoxy]-4-quinazolinamine] here?
**A.** 0.55 % Ctrl

**Q.** What about the “% Ctrl @ 10000 nM” value (FGFR4) of the same compound?
**A.** 69 % Ctrl

**Q.** And the “% Ctrl @ 10000 nM” value (CSNK1D)?
**A.** 25 % Ctrl

**Q.** And the “% Ctrl @ 10000 nM” value (TLK1)?
**A.** 77 % Ctrl

**Q.** And the “% Ctrl @ 10000 nM” value (CAMK1G)?
**A.** 75 % Ctrl

**Q.** And the “% Ctrl @ 10000 nM” value (PIK3CD)?
**A.** 89 % Ctrl

**Q.** And the “% Ctrl @ 10000 nM” value (GAK)?
**A.** 0.95 % Ctrl

**Q.** And the “% Ctrl @ 10000 nM” value (GSK3B)?
**A.** 100 % Ctrl

**Q.** What about the “% Ctrl @ 10000 nM” value (AAK1) of the same compound?
**A.** 38 % Ctrl

**Q.** And the “% Ctrl @ 10000 nM” value (KIT (V559D))?
**A.** 17 % Ctrl

**Q.** What about the “% Ctrl @ 10000 nM” value (NEK5) of the same compound?
**A.** 94 % Ctrl

**Q.** And the “% Ctrl @ 10000 nM” value (PRKCQ)?
**A.** 83 % Ctrl

**Q.** What about the “% Ctrl @ 10000 nM” value (CLK4) of the same compound?
**A.** 17 % Ctrl

**Q.** And the “% Ctrl @ 10000 nM” value (SIK)?
**A.** 53 % Ctrl

**Q.** What about the “% Ctrl @ 10000 nM” value [1] of the same compound?
**A.** 55 % Ctrl

**Q.** What about the “% Ctrl @ 10000 nM” value (PIK3CA) of the same compound?
**A.** 100 % Ctrl

**Q.** And the “% Ctrl @ 10000 nM” value (ACVR2A)?
**A.** 92 % Ctrl

**Q.** What about the “% Ctrl @ 10000 nM” value (TNNI3K) of the same compound?
**A.** 7.6 % Ctrl

**Q.** And the “% Ctrl @ 10000 nM” value (FLT1)?
**A.** 64 % Ctrl

**Q.** And the “% Ctrl @ 10000 nM” value (WEE1)?
**A.** 74 % Ctrl

**Q.** What about the “% Ctrl @ 10000 nM” value (ERK8) of the same compound?
**A.** 62 % Ctrl

**Q.** And the “% Ctrl @ 10000 nM” value (RIPK4)?
**A.** 96 % Ctrl

Source: patent US9050341B2, “Methods of treating drug resistant and other tumors by administering 6,7-dialkoxy quinazoline derivatives” (NATCO PHARMA LIMITED, priority 2009, dated 2015)
